In this test the target is T1, hTLR7 (Homo sapiens, UniProt Q9NYK1).
T1 sequence (Q9NYK1 27-1049): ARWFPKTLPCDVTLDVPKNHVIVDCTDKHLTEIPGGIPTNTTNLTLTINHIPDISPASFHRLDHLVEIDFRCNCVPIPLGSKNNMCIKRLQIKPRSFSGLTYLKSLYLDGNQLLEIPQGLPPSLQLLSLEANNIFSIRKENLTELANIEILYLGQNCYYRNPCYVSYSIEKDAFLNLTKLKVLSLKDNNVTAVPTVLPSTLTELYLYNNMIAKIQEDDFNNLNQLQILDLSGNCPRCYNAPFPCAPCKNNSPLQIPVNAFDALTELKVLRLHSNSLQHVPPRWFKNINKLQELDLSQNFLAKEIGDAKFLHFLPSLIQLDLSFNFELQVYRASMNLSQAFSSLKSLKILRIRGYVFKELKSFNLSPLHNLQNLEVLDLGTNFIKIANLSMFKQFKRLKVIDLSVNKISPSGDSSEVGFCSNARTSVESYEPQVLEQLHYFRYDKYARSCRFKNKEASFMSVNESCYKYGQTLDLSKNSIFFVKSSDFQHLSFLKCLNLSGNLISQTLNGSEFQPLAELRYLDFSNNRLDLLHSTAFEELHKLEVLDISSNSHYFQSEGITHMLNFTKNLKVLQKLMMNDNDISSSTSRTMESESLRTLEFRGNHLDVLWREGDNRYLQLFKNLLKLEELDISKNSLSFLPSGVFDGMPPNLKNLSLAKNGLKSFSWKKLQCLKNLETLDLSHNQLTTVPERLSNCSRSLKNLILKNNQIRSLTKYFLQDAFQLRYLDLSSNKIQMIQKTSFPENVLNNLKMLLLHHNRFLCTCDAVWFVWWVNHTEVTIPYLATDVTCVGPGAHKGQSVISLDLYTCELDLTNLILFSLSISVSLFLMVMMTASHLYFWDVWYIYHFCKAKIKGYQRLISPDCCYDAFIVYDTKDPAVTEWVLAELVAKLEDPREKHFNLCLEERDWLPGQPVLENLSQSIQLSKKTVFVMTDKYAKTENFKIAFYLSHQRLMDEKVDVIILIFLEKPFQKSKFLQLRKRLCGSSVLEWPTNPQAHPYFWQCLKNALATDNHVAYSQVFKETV
Description: HEK293-Blue-hTLR-7 cells assay (SEAP reporter, R848 stimulation). Also on record: host or cells: HEK293 (HEK-Blue). It counts as cell-based. As to conditions: HEK293-Blue-hTLR7 cells, R848, 20 hrs; read-out: HEK/hTLR7 IC50. In a few lines: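 HEK293-Blue cells stably expressing human TLR7 with an NF-κB/AP-1-driven SEAP reporter were treated with serially diluted compound (1% DMSO final) plus R848 for 20 h at 37 °C. Supernatant SEAP activity was measured with QUANTI-Blue substrate after 2 h at 37 °C, with absorbance read at 620-655 nm.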

On to `C[C@@H]1CN(c2ccc(C#N)c3nccnc23)C[C@H](CN2CCN(c3cc4c(cn3)[C@@H](C)NCC4)CC2)O1` (single isomer, unassigned) [Example 86], for which the IC50 turned out to be 6 nM.

For the compound `C[C@@H]1CN(c2ccc(C#N)c3nccnc23)C[C@H](CN2CCN(c3cc4c(cn3)CCN[C@@H]4C)CC2)O1` (single isomer, unassigned) [Example 87], the IC50 is 4 nM. Turning to `C[C@@H]1CN(c2ccc(C#N)c3nccnc23)C[C@H](CN2CCN(c3cc4c(cn3)CCN[C@H]4C)CC2)O1` (single isomer, unassigned) [Example 88], the IC50 turned out to be 6 nM. Take `[2H]c1nc2c(C#N)ccc(N3C[C@H](CN4CCN(c5cc6c(cn5)[C@H](C)NCC6)CC4)O[C@H](C)C3)c2nc1[2H]` (single isomer, unassigned) [Example 94]: the IC50 is 4 nM. In the case of `[2H]c1nc2c(C#N)ccc(N3C[C@H](CN4CCN(c5cc6c(cn5)[C@@H](C)NCC6)CC4)O[C@H](C)C3)c2nc1[2H]` (single isomer, unassigned) [Example 95], the IC50 is 5 nM. Regarding `[2H]c1nc2c(C#N)ccc(N3C[C@H](CN4CCN(c5ccc6c(n5)CN[C@H]6C)CC4)O[C@H](C)C3)c2nc1[2H]` (single isomer, unassigned) [Example 96], the IC50 is 4 nM. Consider `[2H]c1nc2c(C#N)ccc(N3C[C@H](CN4CCN(c5ccc6c(n5)CN[C@@H]6C)CC4)O[C@H](C)C3)c2nc1[2H]` (single isomer, unassigned) [Example 97], for which the IC50 was 7 nM. For `[2H]c1ccc2c(N3C[C@H](CN4CCN(c5ccc6c(n5)CN[C@@H]6C)CC4)O[C@H](C)C3)ccc(C#N)c2n1` (single isomer, unassigned) [Example 98], the IC50 was 8 nM. In the case of `[2H]c1ccc2c(N3C[C@H](CN4CCN(c5ccc6c(n5)CN[C@H]6C)CC4)O[C@H](C)C3)ccc(C#N)c2n1` (single isomer, unassigned) [Example 99] it was 11 nM; in that of `C[C@@H]1CN(c2ccc(C#N)c3ncccc23)C[C@H](CN2CCN(c3ccc4c(c3)CNCC4)CC2)O1` [Example 9, 5-[(2R,6S)-2-methyl-6-[[4-(1,2,3,4-tetrahydroisoquinolin-7-yl)piperazin-1-yl]methyl]morpholin-4-yl]quinoline-8-carbonitrile], 42 nM. In the case of `C[C@@H]1CN(c2ccc(C#N)c3ncccc23)C[C@H](CN2CCN(c3cnc4c(c3)CNC4)CC2)O1` [Example 10, 5-[(2S,6R)-2-[[4-(6,7-dihydro-5H-pyrrolo[3,4-b]pyridin-3-yl)piperazin-1-yl]methyl]-6-methyl-morpholin-4-yl] quinoline-8-carbonitrile], the IC50 worked out at 35 nM.

(Values after patent EP3807270B1, “NOVEL HETEROARYL HETEROCYCLYL COMPOUNDS FOR THE TREATMENT OF AUTOIMMUNE DISEASE” (F. Hoffmann-La Roche AG, priority 2018, dated 2019).)
